Test results: patent publication US4710500A, “1-(4'-fluorophenyl)-3,5-substituted indoles useful in the treatment of psychic disorders and pharmaceutical compositions thereof” (H. Lundbeck A/S, priority 1985, dated 1987)
Like-named read-outs stand apart in the source and are kept apart here.

Columns and labels:
[1] = i.v., mice; compared with known neuroleptics
[2] = system: methylphenidate-induced gnawing; assay: Methylphenidate antagonism; type: in vivo, mice; details: for ED50: Mus musculus
[3] = in vivo; details: mouse, iv
[4] = target: T1, serotomin2 (5-HT2) receptors (Rattus norvegicus, UniProt P14842); assay: 3H-spiroperidol binding, 5-HT2 receptors in rat cortical membranes; details: in vitro, read-out: 3H-Spiroperidol bindings 5-HT2 receptors IC50
T1 construct: 5-HT2 receptors in rat cortical membranes; from tissue; host or cells: rat cortical membranes
Procedure: (§1) 4. ^3 H-spiroperidol bindings
The affinity of compounds to dopamine (DA) D-2 receptors and serotomin2 (5-HT2) receptors was determined by in vitro receptor binding technique. Binding of ^3 H-spiroperidol to DA D-2 receptors in rat striatal membranes and to 5-HT2 receptors in rat cortical membranes was determined as described in detail by Arnt et al. (1984).
(§2) Arnt, J., J. Hyttel and J.-J. Larsen: Acta pharmacol. et toxicol. 55, 363-372, 1984.

[5] = target: T2, 5-HT2 receptor (Rattus norvegicus, UniProt P14842); assay: Quipazine inhibition (head twitches); type: in vivo; details: sc 2 hours before quipazine 15 umol/kg sc
T2 construct: from tissue; host or cells: living rats (in vivo), CNS
Procedure: Quipazine and a number of other compounds, which increase 5-HT2 receptor activity in the CNS, induce a characteristic rapid shake (twitch) of the head. This response is inhibited by 5-HT2 receptor antagonists (Vetulani et al. 1980, Arnt et al. 1984).
The test compound or saline is injected subcutaneously 2 hours before subcutaneous injection of quipazine hemimalecate (15umol/kg). At least 3 dose groups, each consisting of at least 4 rats, are used. The rats are individually placed in observation cages (12×25 cm) and the number of head twitches are counted 30-40 min after quipazine administration. Inhibition of head twitches is expressed in per cent of the number of head twitches in the control group. ED 50 values are calculated by log-probit analysis.
Vetulani, J., B.B. Beduarczyk, K. Reichenberg and A. Rokost: Neuropharmacology 19, 155-158, […].
as §2

[6] = target: T3, dopamine (DA) D-2 receptors (Rattus norvegicus, UniProt P61169); assay: 3H-spiroperidol binding, dopamine D-2 receptors in rat striatal membranes
T3 construct: DA D-2 receptors in rat striatal membranes; from tissue; host or cells: rat striatal membranes
Procedure: as §1
The affinity of compounds to dopamine (DA) D-2 receptors and serotomin2 (5-HT2) receptors was determined by in vitro receptor binding technique.
Arnt, J., J. Hyttel and J.-J. Larsen: Acta pharmacol. et toxicol.

[7] = Catalepsy; type: in vivo, rat
[8] = pharmacological testing (general statements); details: result in words
Procedure: The compounds of Formula I were tested according to reliable and well recognized pharmacological tests as follows: […]

[9] = Rattus norvegicus, sc, 24 h, read-out: Catalep. ED50 (sc) 24 h
[10] = i.p. test substance, mice, methylphenidate s.c. 60 mg/kg
[11] = rat striatal membranes, in vitro, read-out: 3H-Spiroperidol bindings DA-2 receptors IC50

T3 sequence (P61169 whole entry): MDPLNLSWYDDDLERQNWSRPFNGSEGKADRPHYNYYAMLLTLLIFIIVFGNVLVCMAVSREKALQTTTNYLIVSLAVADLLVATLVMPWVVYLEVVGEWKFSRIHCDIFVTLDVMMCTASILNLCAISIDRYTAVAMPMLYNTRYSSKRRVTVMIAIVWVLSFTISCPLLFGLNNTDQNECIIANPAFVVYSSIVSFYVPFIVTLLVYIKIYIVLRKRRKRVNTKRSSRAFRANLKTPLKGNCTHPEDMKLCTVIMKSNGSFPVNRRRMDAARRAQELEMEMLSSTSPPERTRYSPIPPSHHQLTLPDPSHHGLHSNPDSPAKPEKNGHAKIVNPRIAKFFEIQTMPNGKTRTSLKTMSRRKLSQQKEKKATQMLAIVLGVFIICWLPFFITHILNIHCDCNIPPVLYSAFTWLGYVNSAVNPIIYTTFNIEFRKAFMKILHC
T1 sequence (P14842 whole entry): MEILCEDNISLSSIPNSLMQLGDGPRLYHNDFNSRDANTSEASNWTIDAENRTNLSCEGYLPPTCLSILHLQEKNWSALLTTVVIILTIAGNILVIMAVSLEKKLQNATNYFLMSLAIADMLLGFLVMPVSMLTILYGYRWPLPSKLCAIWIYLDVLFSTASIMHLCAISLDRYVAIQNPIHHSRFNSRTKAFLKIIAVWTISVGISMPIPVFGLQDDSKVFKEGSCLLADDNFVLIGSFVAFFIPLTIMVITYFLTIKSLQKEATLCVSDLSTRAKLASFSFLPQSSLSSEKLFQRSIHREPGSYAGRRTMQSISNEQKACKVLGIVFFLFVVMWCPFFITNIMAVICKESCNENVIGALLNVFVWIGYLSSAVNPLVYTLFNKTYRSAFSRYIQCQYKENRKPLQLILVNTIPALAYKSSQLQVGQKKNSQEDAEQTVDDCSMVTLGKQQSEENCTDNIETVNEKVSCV
T2 sequence (P14842 whole entry): as above

## CN1CC=C(c2cn(-c3ccc(F)cc3)c3ccc([N+](=O)[O-])cc23)CC1 [Lu 22-135, 1-(4'-Fluorophenyl)-5-nitro-3-(1-methyl-1,2,3,6-tetrahydropyridin-4-yl)-1H-indole]
[1]
  acute toxicity: comparatively low acute toxicity
[2]; ip, read-out: MePh Antg. ED50(ip)
  ED50: 0.1 µmol/kg
[3]
  LD50: 276 µmol/kg
[4]
  IC50: 1.9 nM
[5]
  Qvipaz. inh. ED50(sc): 0.009 µmol/kg
[6]
  IC50: 1.1 nM
[7]; Rattus norvegicus, po, read-out: Catalep. ED50(po) 1-6 h
  ED50: 0.078 µmol/kg
[7]; [9]
  ED50: > 0.89 µmol/kg

## CN1CCN(c2cn(-c3ccccc3)c3ccc(Cl)cc23)CC1 [Lu 23-015, 5-Chloro-3-(4-methylpiperazino)-1-phenyl-1H-indole, reference compound]
[8]
  effects in the pharmacological testing: without interesting effects
[2]; [10]
  MePh Antg. ED50(ip): 8.8 µmol/kg
[4]
  IC50: 3.9 nM
[5]
  Qvipaz. inh. ED50(sc): 0.062 µmol/kg
[6]; [11]
  IC50: 12 nM
[7]; po, rat, 1-6 h
  Catalep. ED50(po) 1-6 h: 12.0 µmol/kg
[7]; po, rat, 24 h
  Catalep. ED50(po) 24 h: > 15 µmol/kg

## OCCN1CCN(c2cn(-c3ccc(F)cc3)c3ccc(C(F)(F)F)cc23)CC1 [Lu 21-152, 1-(4'-Flurophenyl)-3-(4-(2-hydroxyethyl)-piperazino)-5-trifluoromethyl-1H-indole]
[1]
  acute toxicity: comparatively low acute toxicity
[2]; ip, i.p. test substance, mice, methylphenidate s.c. 60 mg/kg, read-out: MePh Antg. ED50(ip)
  ED50: 0.11 µmol/kg
[3]
  LD50: 147 µmol/kg
[4]
  IC50: 7.4 nM
[5]
  Qvipaz. inh. ED50(sc): 0.023 µmol/kg
[6]; [11]
  IC50: 2.8 nM
[7]; read-out: Catalep. ED50(po) 1-6 h, po, rat, 1-6 h
  ED50: 0.17 µmol/kg
[7]; read-out: Catalep. ED50(po) 24 h, po, rat, 24 h
  ED50: 0.28 µmol/kg

## OCCN1CCN([C@@H]2C[C@@H](c3ccc(F)cc3)c3ccc(C(F)(F)F)cc32)CC1 (racemic) [Tefludazine, reference compound]
[2]; [10]
  MePh Antg. ED50(ip): 0.06 µmol/kg
[3]
  LD50: 120 to 180 µmol/kg
[4]
  IC50: 8.6 nM
[5]
  Qvipaz. inh. ED50(sc): 0.06 µmol/kg
[6]; [11]
  IC50: 19 nM
[7]; po, rat, 1-6 h
  Catalep. ED50(po) 1-6 h: 0.61 µmol/kg
[7]; po, rat, 24 h
  Catalep. ED50(po) 24 h: 0.9 µmol/kg

## OCCN1CC=C(c2c[nH]c3ccc(Cl)cc23)CC1 [Lu 23-143, 5-chloro-3-(1-(2-hydroxyethyl)-1,2,3,6-tetrahydropyrid-4-yl)indol, reference compound]
[8]
  effects in the pharmacological testing: almost inactive compared with the compounds of Formula I
[2]; sc, read-out: MePh Antg. ED50 (sc)
  ED50: 72 µmol/kg
[5]
  Qvipaz. inh. ED50(sc): 4.5 µmol/kg
[7]; [9]
  ED50: > 18 µmol/kg
[7]; Rattus norvegicus, sc, read-out: Catalep. ED50 (sc) 1-6 h
  ED50: > 18 µmol/kg
